Experimental data as given in ChEMBL document CHEMBL1122047.
“And” between values parts separate entries of the source, which are not always exact repeats. Equal entries are not always repeated.

Biological target: Substance-P receptor (Cavia porcellus) (UniProt P30547)
Assay: Relative affinity for Tachykinin receptor 1 compared with [Nle11]-SP

Chain of Substance-P receptor (Cavia porcellus) (P30547 whole entry): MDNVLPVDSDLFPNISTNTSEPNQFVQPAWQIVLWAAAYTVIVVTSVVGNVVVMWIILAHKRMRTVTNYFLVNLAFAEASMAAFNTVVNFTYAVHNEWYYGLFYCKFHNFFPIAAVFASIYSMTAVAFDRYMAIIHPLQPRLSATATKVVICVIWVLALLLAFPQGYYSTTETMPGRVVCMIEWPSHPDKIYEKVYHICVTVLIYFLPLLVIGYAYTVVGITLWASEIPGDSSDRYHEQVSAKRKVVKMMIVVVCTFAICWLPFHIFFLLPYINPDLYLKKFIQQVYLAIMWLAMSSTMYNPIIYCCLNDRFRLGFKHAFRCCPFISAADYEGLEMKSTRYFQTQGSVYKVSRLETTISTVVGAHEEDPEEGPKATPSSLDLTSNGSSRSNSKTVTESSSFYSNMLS

Row | SMILES | RA
1 | CC(C)C[C@H](NC(=O)CNC(=O)[C@H](Cc1ccccc1)NC(=O)[C@H](Cc1ccccc1)NC(=O)[C@H](CCC(N)=O)NC(=O)[C@H](CCC(N)=O)NC(=O)[C@@H]1CCCN1C(=O)[C@H](CCCCN)NC(=O)[C@@H]1CCCN1C(=O)[C@@H](N)CCCN=C(N)N)C(=O)N[C@@H](Cc1ccc(N)cc1)C(N)=O | 55% and 69%
2 | CCCC[C@H](NC(=O)[C@H](CC(C)C)NC(=O)CNC(=O)[C@H](Cc1ccccc1)NC(=O)[C@H](Cc1ccccc1)NC(=O)[C@H](CCC(N)=O)NC(=O)[C@H](CCC(N)=O)NC(=O)[C@@H]1CCCN1C(=O)[C@H](CCCCN)NC(=O)[C@@H]1CCCN1C(=O)[C@@H](N)CCCN=C(N)N)C(N)=O | 100%
3 | CCCC[C@H](NC(=O)[C@H](CC(C)C)NC(=O)CNC(=O)[C@H](Cc1ccccc1)NC(=O)[C@H](Cc1ccc([N+](=O)[O-])cc1)NC(=O)[C@H](CCC(N)=O)NC(=O)[C@H](CCC(N)=O)NC(=O)[C@@H]1CCCN1C(=O)[C@H](CCCCN)NC(=O)[C@@H]1CCCN1C(=O)[C@@H](N)CCCN=C(N)N)C(N)=O | 10%
4 | CC(C)C[C@H](NC(=O)CNC(=O)[C@H](Cc1ccccc1)NC(=O)[C@H](Cc1ccccc1)NC(=O)[C@H](CCC(N)=O)NC(=O)[C@H](CCC(N)=O)NC(=O)[C@@H]1CCCN1C(=O)[C@H](CCCCN)NC(=O)[C@@H]1CCCN1C(=O)[C@@H](N)CCCN=C(N)N)C(=O)N[C@@H](Cc1ccc(N=[N+]=[N-])cc1)C(N)=O | 48% and 50%
5 | CC(C)C[C@H](NC(=O)CNC(=O)[C@H](Cc1ccccc1)NC(=O)[C@H](Cc1ccccc1)NC(=O)[C@H](CCC(N)=O)NC(=O)[C@H](CCC(N)=O)NC(=O)[C@@H]1CCCN1C(=O)[C@H](CCCCN)NC(=O)[C@@H]1CCCN1C(=O)[C@@H](N)CCCN=C(N)N)C(=O)N[C@@H](Cc1ccccc1)C(N)=O | 100%

Other lines, results leading:

Row | RA | SMILES
6 | 81% and 72% | CC(C)C[C@H](NC(=O)CNC(=O)[C@H](Cc1ccccc1)NC(=O)[C@H](Cc1ccccc1)NC(=O)[C@H](CCC(N)=O)NC(=O)[C@H](CCC(N)=O)NC(=O)[C@@H]1CCCN1C(=O)[C@H](CCCCN)NC(=O)[C@@H]1CCCN1C(=O)[C@@H](N)CCCN=C(N)N)C(=O)N[C@@H](Cc1ccc([N+]#N)cc1)C(N)=O
7 | 50% | CCCC[C@H](NC(=O)[C@H](CC(C)C)NC(=O)CNC(=O)[C@H](Cc1ccc(N=[N+]=[N-])cc1)NC(=O)[C@H](Cc1ccccc1)NC(=O)[C@H](CCC(N)=O)NC(=O)[C@H](CCC(N)=O)NC(=O)[C@@H]1CCCN1C(=O)[C@H](CCCCN)NC(=O)[C@@H]1CCCN1C(=O)[C@@H](N)CCCN=C(N)N)C(N)=O
